Where two headings read alike, the source gives them in different places.
How the values were obtained:
45-bp dsDNA = assay: dsDNA intercalation fluorescence polarization assay (acridine orange); assay type: binding; conditions: for Polarization: compound at 30 µM
h-cGAS [1] = target: T1, h-cGAS (Homo sapiens, UniProt Q8N884); assay: ATP-coupled luminescence (LUM, Kinase-Glo) high-throughput assay, h-cGAS; assay type: biochemical; design: His6-SUMO (N, cleaved yes); made in house; host or cells: E. coli BL21-CodonPlus(DE3)-RIL
h-cGAS [2] = target: T1, h-cGAS; assay: RapidFire mass spectrometry (RF-MS) cGAS activity assay, h-cGAS
m-cGAS = m-cGAS (Mus musculus, UniProt Q8C6L5); assay: RapidFire mass spectrometry (RF-MS) cGAS activity assay, m-cGAS
cGAS in THP1 cells = assay: dsDNA-stimulated mRNA induction (qRT-PCR) in THP1 cells; assay type: cell-based, human
[3] = IC50 h-cGAS, RF-MS, in-house synthesized compounds
[4] = h-cGAS IC50, RF-MS, freshly sourced vendor powder
[5] = IC50 m-cGAS, RF-MS, in-house synthesized compounds
[6] = m-cGAS IC50, RF-MS, freshly sourced vendor powder
[7] = library stock, ten half-dilutions from 25 µM, read-out: h-cGAS IC50 (LUM)

T1 sequence (Q8N884 whole entry): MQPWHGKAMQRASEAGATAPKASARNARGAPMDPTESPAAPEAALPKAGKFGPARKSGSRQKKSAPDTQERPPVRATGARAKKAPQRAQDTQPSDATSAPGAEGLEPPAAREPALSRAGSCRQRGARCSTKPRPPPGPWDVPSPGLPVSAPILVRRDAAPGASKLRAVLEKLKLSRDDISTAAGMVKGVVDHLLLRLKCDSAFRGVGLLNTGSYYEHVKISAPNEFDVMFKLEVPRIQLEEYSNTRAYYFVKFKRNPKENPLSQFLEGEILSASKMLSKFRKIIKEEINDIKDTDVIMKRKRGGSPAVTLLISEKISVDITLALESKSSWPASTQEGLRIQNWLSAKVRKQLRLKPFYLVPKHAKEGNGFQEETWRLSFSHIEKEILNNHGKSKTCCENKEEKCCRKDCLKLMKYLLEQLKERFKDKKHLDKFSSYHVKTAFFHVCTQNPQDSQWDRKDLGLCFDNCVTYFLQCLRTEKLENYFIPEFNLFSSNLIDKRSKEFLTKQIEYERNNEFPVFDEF
Sequence of m-cGAS (Q8C6L5 whole entry): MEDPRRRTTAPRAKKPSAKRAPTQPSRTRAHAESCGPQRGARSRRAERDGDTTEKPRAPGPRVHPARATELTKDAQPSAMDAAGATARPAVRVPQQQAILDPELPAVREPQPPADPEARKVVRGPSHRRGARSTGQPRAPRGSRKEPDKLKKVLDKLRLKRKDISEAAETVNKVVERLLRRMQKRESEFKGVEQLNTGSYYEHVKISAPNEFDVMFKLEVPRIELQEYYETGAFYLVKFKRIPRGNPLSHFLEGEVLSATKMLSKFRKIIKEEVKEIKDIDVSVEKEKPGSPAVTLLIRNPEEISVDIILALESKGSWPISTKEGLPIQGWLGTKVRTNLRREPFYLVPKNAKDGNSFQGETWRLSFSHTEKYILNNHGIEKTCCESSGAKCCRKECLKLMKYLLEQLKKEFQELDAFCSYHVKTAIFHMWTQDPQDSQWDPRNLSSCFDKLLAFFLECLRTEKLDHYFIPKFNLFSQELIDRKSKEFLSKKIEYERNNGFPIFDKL

COCC(=O)N1CCc2[nH]c3c(Cl)cc(Cl)cc3c2C1 [G001]
% Intercalation at 30 µM (45-bp dsDNA): -6.09%
Polarization (45-bp dsDNA): 258 mP
IC50 (h-cGAS [1]): 1.2 µM
IC50 (h-cGAS [2]; [3]): 2.08 µM
IC50 (h-cGAS [2]; [4]): 2.75 µM
IC50 (m-cGAS; [5]): 0.44 µM
IC50 (m-cGAS; [6]): 1.14 µM

O=C(CO)N1CCc2[nH]c3c(Cl)c(Br)ccc3c2C1 [G086]
inhibition of IFNB1 mRNA induction in human THP1 cells (in words) (cGAS in THP1 cells): did not inhibit

O=C(CO)N1CCc2[nH]c3c(F)c(Br)ccc3c2C1 [G092]
inhibition of IFNB1 mRNA induction in human THP1 cells (in words) (cGAS in THP1 cells): did not inhibit

O=C(Nc1ccc(Cl)cn1)c1[nH]ncc1[N+](=O)[O-] [J001]
% Intercalation at 30 µM (45-bp dsDNA): -7.59%
Polarization (45-bp dsDNA): 258 mP
IC50 (h-cGAS [1]; [7]): 0.913 µM
IC50 (h-cGAS [2]; [3]): 1.04 µM
IC50 (h-cGAS [2]; [4]): 0.976 µM
IC50 (m-cGAS; [5]): 0.49 µM
IC50 (m-cGAS; [6]): 0.972 µM

O=C(Nc1cc(-c2ccccc2)ccn1)c1nnc[nH]1 [J073]
IC50 (m-cGAS; [5]): 4.32 µM

O=C(O)Cc1cc(I)c(Oc2cc(I)c(O)c(I)c2)c(I)c1 [RU-0001026_AA-001]
% Intercalation at 30 µM (45-bp dsDNA): -15.3%
Polarization (45-bp dsDNA): 274 mP
IC50 (h-cGAS [1]; [7]): 6.16 µM
IC50 (h-cGAS [2]; [4]): 11.9 µM
IC50 (m-cGAS; [6]): 29.2 µM

O=c1[nH]c2c(Cl)c(Cl)c(Cl)cc2o1 [RU-0002019_AA-001]
% Intercalation at 30 µM (45-bp dsDNA): -9.27%
Polarization (45-bp dsDNA): 260 mP
IC50 (h-cGAS [1]; [7]): 3.9 µM
IC50 (h-cGAS [2]; [4]): 8.1 µM
IC50 (m-cGAS; [6]): 11.6 µM

S=c1[nH]nc(-c2sc3ccccc3c2Cl)o1 [RU-0003433_AA-002]
% Intercalation at 30 µM (45-bp dsDNA): -16.75%
Polarization (45-bp dsDNA): 277 mP
IC50 (h-cGAS [1]; [7]): 8.68 µM
IC50 (h-cGAS [2]; [4]): 7.16 µM
IC50 (m-cGAS; [6]): 16.1 µM

FC(F)(F)c1nc2cc(Cl)cc(Cl)c2[nH]1 [RU-0005637_AA-001]
% Intercalation at 30 µM (45-bp dsDNA): -3.44%
Polarization (45-bp dsDNA): 248 mP
IC50 (h-cGAS [1]; [7]): 3.38 µM
IC50 (h-cGAS [2]; [4]): 2.39 µM
IC50 (m-cGAS; [6]): > 50 µM

N#Cc1c(C(F)(F)F)cc(=O)n2c1[nH]c1ccccc12 [RU-0006086_AA-001]
% Intercalation at 30 µM (45-bp dsDNA): -13.31%
Polarization (45-bp dsDNA): 268 mP
IC50 (h-cGAS [1]; [7]): 0.128 µM
IC50 (h-cGAS [2]; [4]): 1.05 µM
IC50 (m-cGAS; [6]): 17.9 µM

O=C(O)CN1C(=O)/C(=C\c2cc([N+](=O)[O-])cc(Br)c2O)SC1=S [RU-0010201_AA-001]
% Intercalation at 30 µM (45-bp dsDNA): -18.01%
Polarization (45-bp dsDNA): 278 mP
IC50 (h-cGAS [1]; [7]): 1.55 µM
IC50 (h-cGAS [2]; [4]): 3.02 µM
IC50 (m-cGAS; [6]): 5.77 µM

Oc1cccc2ccc(Nc3ccccn3)nc12 [RU-0010562_AA-001]
% Intercalation at 30 µM (45-bp dsDNA): 10.31%
Polarization (45-bp dsDNA): 220 mP
IC50 (h-cGAS [1]; [7]): 9.1 µM
IC50 (h-cGAS [2]; [4]): 13.2 µM
IC50 (m-cGAS; [6]): > 50 µM

O=C1NC(=S)S/C1=C\c1ccc(-c2ccccc2C(=O)O)o1 [RU-0020238_AA-001]
% Intercalation at 30 µM (45-bp dsDNA): -24.96%
Polarization (45-bp dsDNA): 292 mP
IC50 (h-cGAS [1]; [7]): 3.59 µM
IC50 (h-cGAS [2]; [4]): 3.78 µM
IC50 (m-cGAS; [6]): 9.65 µM

Cc1c2c(nc3cc4c(cc13)OCO4)CCc1ccccc1-2 [RU-0093754_AQ-001]
% Intercalation at 30 µM (45-bp dsDNA): -2.1%
Polarization (45-bp dsDNA): 247 mP
IC50 (h-cGAS [1]; [7]): 9.35 µM
IC50 (h-cGAS [2]; [4]): 23.1 µM
IC50 (m-cGAS; [6]): > 50 µM

CCC(=O)Nc1sc2c(c1-c1nc3ccccc3s1)CCN(CC)C2 [RU-0131894_AQ-001]
% Intercalation at 30 µM (45-bp dsDNA): 40.34%
Polarization (45-bp dsDNA): 159 mP
IC50 (h-cGAS [1]; [7]): 1.09 µM
IC50 (h-cGAS [2]; [4]): 0.965 µM
IC50 (m-cGAS; [6]): 7.51 µM

CNC(=O)CSc1nc(=O)n2nc(C)c(-c3ccccc3)c2[nH]1 [RU-0142869_AA-001]
% Intercalation at 30 µM (45-bp dsDNA): -8.43%
Polarization (45-bp dsDNA): 260 mP
IC50 (h-cGAS [1]; [7]): 9.12 µM
IC50 (h-cGAS [2]; [4]): 4.78 µM
IC50 (m-cGAS; [6]): > 50 µM

Clc1ccc2c(-n3ccnc3)ccnc2c1 [RU-0166197_AA-001]
% Intercalation at 30 µM (45-bp dsDNA): -4.04%
Polarization (45-bp dsDNA): 250 mP
IC50 (h-cGAS [1]): 6.49 µM
IC50 (h-cGAS [2]): 2.64 µM
IC50 (m-cGAS): 10.8 µM

O=c1c(/C=N\C2CC2)c(-c2ccccc2)[nH]n1-c1nc2ccccc2s1 [RU-0166710_AA-001]
% Intercalation at 30 µM (45-bp dsDNA): -5.01%
Polarization (45-bp dsDNA): 252 mP
IC50 (h-cGAS [1]; [7]): 7.69 µM
IC50 (h-cGAS [2]; [4]): 5.27 µM
IC50 (m-cGAS; [6]): > 50 µM

CCC/N=C\c1c(-c2ccccc2)[nH]n(-c2nc3ccccc3s2)c1=O [RU-0166755_AA-001]
% Intercalation at 30 µM (45-bp dsDNA): -3.39%
Polarization (45-bp dsDNA): 249 mP
IC50 (h-cGAS [1]; [7]): 7.29 µM
IC50 (h-cGAS [2]; [4]): 12.8 µM
IC50 (m-cGAS; [6]): > 50 µM

O=c1cc(Cc2ccccc2)[nH]c2c(-c3ccccc3)c(C(F)(F)F)nn12 [RU-0168658_AA-001]
% Intercalation at 30 µM (45-bp dsDNA): -8.74%
Polarization (45-bp dsDNA): 260 mP
IC50 (h-cGAS [1]; [7]): 1.63 µM
IC50 (h-cGAS [2]; [4]): 1.13 µM
IC50 (m-cGAS; [6]): > 50 µM

N=C1/C(=C/c2ccc(O)cc2)C(=O)N=C2SC(c3ccccc3Cl)=NN12 [RU-0169289_AA-001]
% Intercalation at 30 µM (45-bp dsDNA): -14.25%
Polarization (45-bp dsDNA): 271 mP
IC50 (h-cGAS [1]; [7]): 9.95 µM
IC50 (h-cGAS [2]; [4]): 5.18 µM
IC50 (m-cGAS; [6]): 14.9 µM

COCc1nn2c(=O)cc(Cc3ccccc3)[nH]c2c1-c1ccccc1 [RU-0171678_AA-001]
% Intercalation at 30 µM (45-bp dsDNA): -2.74%
Polarization (45-bp dsDNA): 248 mP
IC50 (h-cGAS [1]; [7]): 1.37 µM
IC50 (h-cGAS [2]; [4]): > 50 µM
IC50 (m-cGAS; [6]): > 50 µM

CSC(=S)N/N=C(\c1ccccc1)c1ccccn1 [RU-0172034_AA-001]
% Intercalation at 30 µM (45-bp dsDNA): -10.03%
Polarization (45-bp dsDNA): 263 mP
IC50 (h-cGAS [1]; [7]): 4.69 µM
IC50 (h-cGAS [2]; [4]): 7.02 µM
IC50 (m-cGAS; [6]): > 50 µM

Oc1ccccc1C1=NNC2(CC3CC2C2CCCC32)S1 (stereo not shown) [RU-0182153_AA-001]
% Intercalation at 30 µM (45-bp dsDNA): -11.48%
Polarization (45-bp dsDNA): 266 mP
IC50 (h-cGAS [1]; [7]): 4.8 µM
IC50 (h-cGAS [2]; [4]): 33.1 µM
IC50 (m-cGAS; [6]): > 50 µM

N#CC(C(=O)/C=C/c1nccs1)C(=O)Nc1cccc(Cl)c1Cl (stereo not shown) [RU-0183726_AA-001]
% Intercalation at 30 µM (45-bp dsDNA): -6.77%
Polarization (45-bp dsDNA): 256 mP
IC50 (h-cGAS [1]; [7]): 7.46 µM
IC50 (h-cGAS [2]; [4]): 4.63 µM
IC50 (m-cGAS; [6]): 17.3 µM

Cc1ccc2c(=O)c3ccccc3n(CCCN)c2c1C [RU-0187094_AT-001]
% Intercalation at 30 µM (45-bp dsDNA): 45.76%
Polarization (45-bp dsDNA): 148 mP
IC50 (h-cGAS [1]; [7]): 2.59 µM
IC50 (h-cGAS [2]; [4]): 1.61 µM
IC50 (m-cGAS; [6]): 10.3 µM

NC(=O)n1c(O)c(C(=O)c2cccs2)c2cc(Cl)ccc21 [RU-0187170_AA-001]
% Intercalation at 30 µM (45-bp dsDNA): -15.37%
Polarization (45-bp dsDNA): 274 mP
IC50 (h-cGAS [1]; [7]): 1.38 µM
IC50 (h-cGAS [2]; [4]): 1.31 µM
IC50 (m-cGAS; [6]): 21.5 µM

O=C(Nc1ncccc1O)c1nc(-c2ccccc2)n2c1CCCCC2 [RU-0208404_AA-001]
% Intercalation at 30 µM (45-bp dsDNA): -4.67%
Polarization (45-bp dsDNA): 252 mP
IC50 (h-cGAS [1]; [7]): 2.48 µM
IC50 (h-cGAS [2]; [4]): 13.7 µM
IC50 (m-cGAS; [6]): > 50 µM

Cc1ccc(-n2[nH]c(C(=O)Nc3ccnc4ccnn34)cc2=O)cc1 [RU-0208705_AA-001]
% Intercalation at 30 µM (45-bp dsDNA): -20.07%
Polarization (45-bp dsDNA): 283 mP
IC50 (h-cGAS [1]; [7]): 2.72 µM
IC50 (h-cGAS [2]; [4]): 7.82 µM
IC50 (m-cGAS; [6]): > 50 µM

COC(=O)C1=NN2C(=NS(=O)(=O)c3ccccc32)N1 [RU-0209189_AA-001]
% Intercalation at 30 µM (45-bp dsDNA): -6.61%
Polarization (45-bp dsDNA): 256 mP
IC50 (h-cGAS [1]; [7]): 6.64 µM
IC50 (h-cGAS [2]; [4]): 3.04 µM
IC50 (m-cGAS; [6]): 3.93 µM

Reference: article PMC6529454, “Development of human cGAS-specific small-molecule inhibitors for repression of dsDNA-triggered interferon expression” (Nature Communications, 2019)
